In patent US20150065416A1, “NOVEL DRUG COMBINATION” (FAB PHARMA SAS, priority 2013, published 2015):

How the values were obtained:
Format in all cases: cell-based, Acinetobacter baumannii
[1] = test system: A. baumannii isolates; experiment: Time kill study (Example 4); conditions: for Time to kill 99.9%: alone
Procedure: A total of 12 isolates were tested (three per sub-group either susceptible, meropenem-resistant, amikacin-resistant or colistin-resistant). Two combinations were tested per isolate. Time-kill kinetics were performed by testing compound (I) and an additional antibacterial agent (amikacin, colistin and meropenem) individually at 1× and 4× the corresponding MIC of each antibacterial agent. […] Samples were taken at 0, 2, 4, 8 and 24 hours in order to determine colony forming units (CFU/mL).
Time-kill studies were carried out as described in General Procedures using combinations of compound (I) with amikacin, meropenem and colistin, respectively.

[2] = test system: A. baumannii isolates; experiment: Individual antimicrobial susceptibility testing (MIC, broth microdilution, CLSI)
Procedure: In the antimicrobial susceptibility testing 77 isolates of A. baumannii (from 2010) in the following sub-groups were tested: • 22 isolates generally susceptible to antimicrobial agents (“Sus”) • 20 carbapenem-resistant isolates (e.g. “MPM-R”) • 20 aminoglycoside-resistant isolates (e.g. “AMK-R”) • 15 colistin-resistant isolates. (e.g. “COL-R”)
Minimum inhibitory concentration (MIC) endpoints were determined by broth microdilution according to CLSI guidelines (CLSI, M7-A8 & M100-S22, 2012). Panels were prepared at IHMA using cation-adjusted Mueller-Hinton broth. Colonies were taken directly from a second-pass culture plate and prepared to a suspension equivalent of the 0.5 McFarland standard using normal saline.
Testing was carried out as described in the General Procedures to determine minimum inhibitory concentration (MIC) end points for compound (I), amikacin, colistin, gentamicin, meropenem and tobramycin, for 77 A. baumannii isolates. Under the “MIC (μg/ml)” heading, the first column (Range) indicates the MIC end points for the particular number (N) of isolates tested, the second column (50%) provides an estimate of the concentration that inhibits 50% (MIC50) of bacterial isolates tested, and the third column (90%) provides an estimate of the concentration that inhibits 90% of the bacterial isolates tested.

[3] = test system: A. baumannii isolates; experiment: Checkerboard testing (compound (I)/antibacterial agent interaction, FIC index)
Procedure: Checkerboard interaction studies were performed using 5 isolates from each of the sub-groups and time kill studies were performed using 3 isolates from each sub-group.
Checkerboards (20 isolates, 5 per sub-group) were prepared so as to contain multiple concentrations of compound (I) with different additional antibacterial agents (amikacin, gentamicin, colistin, meropenem and tobramycin) as follows:
Serial two-fold dilutions of the antimicrobial agents alone or in combination in wells of 96 well microtiter plates were inoculated with the appropriate inoculum so that each well contained approximately 4-5×10^4 CFU/ml. Plates were incubated at 35° C. for 16-20 hours. Combination concentrations were tested between 0.25×MIC and 2×MIC. Growth and sterility controls were also included in each plate.
Synergy, indifference and antagonism were calculated based upon the use of the fractional inhibitory concentration (FIC) indices as described by Pillai, Moellering & Eliopoulos (2005) whereby:
Synergism=FIC index of ≦0.5 Indifference=FIC index >1 but ≦4 Additivity >0.5 to 1 Antagonism=FIC index of >4
Checkerboard studies were carried out as described in General Procedures using twenty different A. baumannii isolates with 5 per sub-group of: susceptible, amikacin-resistant, colistin-resistant and meropenem-resistant.

[4] = test system: A. baumannii CIP 5377, CIP 7034, AYE, SAN, RCH; experiment: Antimicrobial susceptibility testing (MIC, broth microdilution, EUCAST; Example 5)
Text: A. baumannii CIP 5377 (ATCC® 17978): low cephalosporinase producing strain, susceptible to meropenem and amikacin, isolated in an infected patient
A. baumannii CIP 7034: low cephalosporinase producing strain, susceptible to meropenem and amikacin A. baumannii AYE ATCC® BAA1710™: extended spectrum beta-lactamase producing strain susceptible to meropenem and resistant to amikacin
A. baumannii SAN-94040 (SAN): cephalosporinase-overproducing strain, susceptible to meropenem and intermediate to amikacin and resistant to fluoroquinolones, isolated from blood cultures of an intensive care patient with nosocomial pneumonia from North Africa (Algeria).
A. baumannii RCH-69: cephalosporinase producing strain; low susceptibility to imipenem and resistant to amikacin.

[5] = Amikacin-resistant isolates, N=20
[6] = Colistin-resistant isolates, N=15
[7] = Meropenem-resistant isolates, N=20
[8] = A. baumannii 441142, colistin-resistant
[9] = A. baumannii 441160, colistin-resistant
[10] = A. baumannii 463996, colistin-resistant
[11] = A. baumannii 466936, colistin-resistant
[12] = A. baumannii 517303, colistin-resistant
[13] = A. baumannii 618649, meropenem-resistant
[14] = A. baumannii 625917, meropenem-resistant
[15] = A. baumannii 628760, susceptible
[16] = A. baumannii 637723, amikacin-resistant
[17] = A. baumannii 638115, amikacin-resistant
[18] = A. baumannii 650216, meropenem-resistant
[19] = A. baumannii 655932, amikacin-resistant
[20] = A. baumannii 661954, amikacin-resistant
[21] = A. baumannii 667848, meropenem-resistant
[22] = A. baumannii 668116, susceptible
[23] = A. baumannii 668239, amikacin-resistant
[24] = A. baumannii 670348, susceptible
[25] = A. baumannii 671050, meropenem-resistant
[26] = A. baumannii 672190, susceptible
[27] = A. baumannii 674340, susceptible

colistin
Time to kill 99.9% ([1]; AMK-R-1, 1xMIC): 1.4 h | Time to kill 99.9% ([1]; AMK-R-1, 4xMIC): 1.3 h | Time to kill 99.9% ([1]; AMK-R-2, 1xMIC): 2.3 h | Time to kill 99.9% ([1]; AMK-R-2, 4xMIC): 1.8 h | Time to kill 99.9% ([1]; AMK-R-3, 1xMIC): >24 h^ | Time to kill 99.9% ([1]; AMK-R-3, 4xMIC): 2.9 h | Time to kill 99.9% ([1]; COL-R-1, 1xMIC): 2.8 h | Time to kill 99.9% ([1]; COL-R-1, 4xMIC): 2.3 h | Time to kill 99.9% ([1]; COL-R-2, 1xMIC): >24 h^ | Time to kill 99.9% ([1]; COL-R-2, 4xMIC): >24 h | Time to kill 99.9% ([1]; COL-R-3, 1xMIC): 2.7 h | Time to kill 99.9% ([1]; COL-R-3, 4xMIC): 2.1 h | Time to kill 99.9% ([1]; MPM-R-1 (second line, Table 8 r14), 1xMIC): 1.3 h | Time to kill 99.9% ([1]; MPM-R-1 (second line, Table 8 r14), 4xMIC): 1.6 h | Time to kill 99.9% ([1]; MPM-R-1, 1xMIC): 5.0 h | Time to kill 99.9% ([1]; MPM-R-1, 4xMIC): 8.1 h | Time to kill 99.9% ([1]; MPM-R-3, 1xMIC): 2 h | Time to kill 99.9% ([1]; MPM-R-3, 4xMIC): 5.1 h | Time to kill 99.9% ([1]; Sus-1, 1xMIC): >24 h^ | Time to kill 99.9% ([1]; Sus-1, 4xMIC): >24 h | Time to kill 99.9% ([1]; Sus-2, 4xMIC): 6.3 h | Time to kill 99.9% ([1]; Sus-3, 1xMIC): 1.6 h | Time to kill 99.9% ([1]; Sus-3, 4xMIC): 3.6 h | effect in time-kill studies when tested alone ([1]; alone at 1× or 4×MIC): generally bactericidal | MIC ([1]; isolate AMK-R-1): 0.5 µg/mL | MIC ([1]; isolate AMK-R-2): 0.5 µg/mL | MIC ([1]; isolate AMK-R-3): 0.25 µg/mL | MIC ([1]; isolate COL-R-1): 8 µg/mL | MIC ([1]; isolate COL-R-2): 4 µg/mL | MIC ([1]; isolate COL-R-3): 16 µg/mL | MIC ([1]; isolate MPM-R-1): 0.25 µg/mL | MIC ([1]; isolate MPM-R-3): 1 µg/mL | MIC ([1]; isolate Sus-1): 1 µg/mL | MIC ([1]; isolate Sus-2): 0.5 µg/mL | MIC ([1]; isolate Sus-3): 0.25 µg/mL | MIC ([1]; isolate printed MPM-R-1 (second such line of Table 8, r14)): 1 µg/mL | mode MIC ([2]; 77 isolates, FIG. 1 and 2): lowest mode MIC | MIC 50% ([2]; All isolates, N=77): 0.5 µg/mL | MIC 90% ([2]; All isolates, N=77): 8 µg/mL | MIC 50% [2, 5]: 0.5 µg/mL | MIC 90% [2, 5]: 1 µg/mL | MIC Range [2, 5]: 0.25 to 2 µg/mL | MIC 50% [2, 6]: 8 µg/mL | MIC 90% [2, 6]: >32 µg/mL | MIC 50% [2, 7]: 0.5 µg/mL | MIC 90% [2, 7]: 1 µg/mL | MIC Range [2, 7]: 0.25 to 1 µg/mL | MIC 50% ([2]; Susceptible isolates, N=22): 0.5 µg/mL | MIC 90% ([2]; Susceptible isolates, N=22): 0.5 µg/mL | MIC Range ([2]; Susceptible isolates, N=22): 0.06 to 1 µg/mL | MIC [3, 8]: 8 µg/mL | MIC [3, 9]: 4 µg/mL | MIC [3, 10]: 4 µg/mL | MIC [3, 11]: 8 µg/mL | MIC [3, 12]: >1024 µg/mL | MIC [3, 13]: 0.5 µg/mL | MIC [3, 14]: 0.5 µg/mL | MIC [3, 15]: 0.5 µg/mL | MIC [3, 16]: 0.5 µg/mL | MIC [3, 17]: 0.5 µg/mL | MIC [3, 18]: 0.25 µg/mL | MIC [3, 19]: 0.5 µg/mL | MIC [3, 20]: 1 µg/mL | MIC [3, 21]: 0.5 µg/mL | MIC [3, 22]: 1 µg/mL | MIC [3, 23]: 0.5 µg/mL | MIC [3, 24]: 0.5 µg/mL | MIC [3, 25]: 0.5 µg/mL | MIC [3, 26]: 0.5 µg/mL | MIC [3, 27]: 0.5 µg/mL | MIC ([4]; A. baumannii AYE): 1 µg/mL | MIC ([4]; A. baumannii CIP 5377): 0.5 µg/mL | MIC ([4]; A. baumannii CIP 7034): 0.5 µg/mL | MIC ([4]; A. baumannii RCH): 0.5 µg/mL | MIC ([4]; A. baumannii SAN): 1 µg/mL

gentamicin
MIC 50% ([2]; All isolates, N=77): 32 µg/mL | MIC 90% ([2]; All isolates, N=77): >32 µg/mL | MIC 50% [2, 5]: >32 µg/mL | MIC 90% [2, 5]: >32 µg/mL | MIC 50% [2, 6]: 32 µg/mL | MIC 90% [2, 6]: >32 µg/mL | MIC 50% [2, 7]: >32 µg/mL | MIC 90% [2, 7]: >32 µg/mL | MIC 50% ([2]; Susceptible isolates, N=22): 1 µg/mL | MIC 90% ([2]; Susceptible isolates, N=22): 2 µg/mL | MIC Range ([2]; Susceptible isolates, N=22): 0.06 to 2 µg/mL | MIC [3, 8]: >1024 µg/mL | MIC [3, 9]: >1024 µg/mL | MIC [3, 10]: 2 µg/mL | MIC [3, 11]: 4 µg/mL | MIC [3, 12]: 512 µg/mL | MIC [3, 13]: 0.5 µg/mL | MIC [3, 14]: 1 µg/mL | MIC [3, 15]: 1 µg/mL | MIC [3, 16]: 128 µg/mL | MIC [3, 17]: 4 µg/mL | MIC [3, 18]: 64 µg/mL | MIC [3, 19]: 128 µg/mL | MIC [3, 20]: 16 µg/mL | MIC [3, 21]: 256 µg/mL | MIC [3, 22]: 0.5 µg/mL | MIC [3, 23]: 1024 µg/mL | MIC [3, 24]: 1 µg/mL | MIC [3, 25]: 8 µg/mL | MIC [3, 26]: 1 µg/mL | MIC [3, 27]: 1 µg/mL
